Laboratory results from patent publication US20230390265A1, “IRAK4 Inhibitors and Topical Uses Thereof” (Dermira, Inc., priority 2020, published 2023).
Entries after “also recorded” stand apart in the source; their conditions may differ.

Test system: TNFα protein expression
Assay: Skin resident immune cell assay (sRICA), LPS-stimulated human skin, TNFα protein
Assay type: cell-based
Conditions: positive control, applied topically
Procedure: The anti-inflammatory activity of the IRAK4/TrkA inhibitors was determined in a skin resident immune cell assay (sRICA). In this model, human surgical skin waste was cultured in a transwell system, with the dermis in contact with cell culture media and the stratum corneum exposed to air. To perform the assay, each human skin sample was defatted and dermatomed to 750 μm. Next, 8 mm punch biopsies were obtained and placed in a membrane transwell. The biopsies were prepared with a barrier ring to contain the formulation and prevent leakage of the formulation. The transwells were inserted into culture wells with complete media, and a cocktail of cytokines and antibodies and/or inflammatory stimuli were added to promote skin resident immune cell polarization and/or elicitation of a specific inflammatory response. The transwells were treated with LPS as a positive control, a vehicle as a negative control, and various dual IRAK/TrkA inhibitors. TNFα protein expression was measured and the mean TNFα protein level in the LPS treated samples was set to 100%.
The Compounds were formulated at 80% saturated solubility. […]
Except for the 0.5% Compound 1/NAG6 formulations, all Round 2 formulations were manufactured at 80% saturation. […] Conditioned cell media was collected and assessed for expression of inflammatory proteins after 48 hours of exposure to LPS stimulation.

CCC(=O)O[C@]1(C(=O)CCl)[C@@H](C)C[C@H]2[C@@H]3CCC4=CC(=O)C=C[C@]4(C)[C@@]3(F)[C@@H](O)C[C@@]21C [Clobetasol]
Effect on LPS-induced TNFα production / inflammation: significantly reduced inflammation back to baseline levels; also recorded: completely inhibited TNFα induction
